Data set [1] can be described thus: Lipophilicity, log P of the compound. To be noted: octanol/water.
Data set [2] can be described thus: Distribution coefficient, log D of the compound. To be noted: octanol/water. Type of data set: physicochemical.
Data set [3] can be described thus: Volume of distribution at steady state in wild type mouse. Type of data set: ADME, organism-based. The note with it: in vivo, read-out: Vdss.
In data set [4] the test system is Plasma. As to the kind of experiment: (§1) Unbound fraction in human plasma. Type of data set: ADME, cell-free.
The species entered for data set [5] is Homo sapiens. As to the kind of experiment: Unbound volume of distribution at steady state in human. Type of data set: ADME, organism-based. To be noted: in vivo.
For data set [6], the species on record is Homo sapiens. As to the kind of experiment: Unbound intrinsic clearance in human. Format: ADME, organism-based. To be noted: in vivo.
The nature of data set [7]: Volume of distribution at steady state in human. The note with it: in vivo.
A short description of data set [8]: Dissociation constant of the compound. Type of data set: physicochemical.
A short description of data set [9]: as §1. Format: ADME, cell-free.
Data set [10] is described as follows: Volume of distribution at steady state in Sprague-Dawley rat at 2.5 mg/kg. Format: ADME, organism-based. To be noted: in vivo, read-out: Vdss.
In data set [11] the target is Heat shock protein HSP90 (Homo sapiens, UniProt P07900+P08238). As to the kind of experiment: Inhibition of human recombinant HSP90 by scintillation proximity competition binding assay. Type of data set: protein assay.
A short description of data set [12]: Volume of distribution at steady state in mouse. Format: ADME, organism-based. The note with it: in vivo, read-out: Vdss.

For orientation: logP means a log measure of how a compound divides between an organic and an aqueous phase. Broadly, the logD is the decadic logarithm of the distribution of all forms, ionised or not, between an organic phase and buffer at a given pH. In data set [1], `CC(C(=O)O)c1cccc(C(=O)c2ccccc2)c1` (stereo not given) [KETOPROFEN] displayed a logP of 2.9. The logD in [2] (read-out: logD) came to 0.2.
`CCC(C)(C)C(=O)O[C@H]1C[C@@H](C)C=C2C=C[C@H](C)[C@H](CC[C@@H]3C[C@@H](O)CC(=O)O3)[C@H]21` [SIMVASTATIN]: in data set [3], the Vd is 14 L/kg.
For the molecule `COc1ccc2c(c1)c(CC(=O)O)c(C)n2C(=O)c1ccc(Cl)cc1` [INDOMETHACIN], in data set [2] (read-out: logD), the logD is 0.7. In data set [4], the Fu came to 0.01. Moreover, in data set [5], the Vduss worked out at 9.6 L/kg.
In [1], `COCCOC(=O)C1=C(C)NC(C)=C(C(=O)OC(C)C)C1c1cccc([N+](=O)[O-])c1` (stereo not given) [NIMODIPINE] showed a logP of 4.2.
As to `CC[C@H](C)C(=O)O[C@H]1C[C@H](O)C=C2C=C[C@H](C)[C@H](CC[C@@H](O)C[C@@H](O)CC(=O)O)[C@H]21` [PRAVASTATIN], the Vd in data set [3] worked out at 0.27 L/kg.
In turn, `CC(C)NCC(O)COc1ccc(CCOCC2CC2)cc1` (stereo not given) [BETAXOLOL] displayed a logD in data set [2] of 1.1. Further, the Vduss in [5] stood at 13 L/kg. The CL free in [6] amounted to 13 mL/min/kg.
`CN(C)CCC(c1ccc(Cl)cc1)c1ccccn1` (stereo not given) [CHLORPHENIRAMINE] had a logP in data set [1] of 3.4. Moreover, the logD in data set [2] (read-out: logD) stood at 1.5. Moreover, the Fu in data set [4] was determined as 0.056. In addition, the Vd in [7] is 10 L/kg. Moreover, in data set [5], the Vduss was determined as 178 L/kg.
A word on the pKa: it is the pH at which an ionisable group is half protonated. The term fraction unbound denotes free concentration divided by total concentration. The low end stands for little free substance, the high end for much free substance. Consider `CNCCC(Oc1ccc(C(F)(F)F)cc1)c1ccccc1` (stereo not given) [FLUOXETINE], for which the pKa in data set [8] came out at 10.5. In data set [9], this molecule registered an unbound share (fraction unbound) of 0.06. Also, the Vd in data set [7] turned out to be 4.3 L/kg. This molecule also yielded a Vduss in data set [5] of 71 L/kg.
`CCOC(=O)C1=C(COCCN)NC(C)=C(C(=O)OC)C1c1ccccc1Cl` (stereo not given) [AMLODIPINE] came in with a logP in data set [1] of 3.3. Besides, in [2] (read-out: logD), the logD worked out at 1.2.
For orientation: Ki means the equilibrium dissociation constant of an inhibitor or competing ligand from its target. Take `CC(F)(F)CC(C)(C)NC(=O)N1Cc2nc(N)nc(-c3c(Cl)cc(Cl)cc3OCCn3cccn3)c2C1`: the Vd in data set [10] is 1.8 L/kg. Besides, the Ki in [11] worked out at 6.6 nM.
The corresponding values for `CC(C)(NC(=O)N1Cc2nc(N)nc(-c3c(Cl)cc(Cl)cc3OCCn3cc(F)cn3)c2C1)C12CC(C1)C2` are 11 L/kg and 3.3 nM.
In data set [5], `OC(Cn1cncn1)(Cn1cncn1)c1ccc(F)cc1F` [FLUCONAZOLE] displayed a Vduss of 0.84 L/kg.
For the molecule `CC(C)(CC(F)(F)F)NC(=O)N1Cc2nc(N)nc(-c3c(Cl)cc(Cl)cc3OCCn3cc(F)cn3)c2C1`, the Vd in data set [10] is 13 L/kg. Moreover, the Ki in data set [11] is listed as 2.1 nM.
The matching figures for `CC(C)(CC(F)(F)F)NC(=O)N1Cc2nc(N)nc(-c3c(Cl)cc(Cl)cc3OCCn3cccn3)c2C1`: 2 L/kg and 9.7 nM.
For `COCCc1ccc(OCC(O)CNC(C)C)cc1` (stereo not given) [METOPROLOL], the logD in data set [2] (read-out: logD) was -0.1. For the same molecule, the Vduss in data set [5] was 4 L/kg. The molecule further returned a CL free in data set [6] of 33 mL/min/kg.
Take `CC(F)(F)CC(C)(C)NC(=O)N1Cc2nc(N)nc(-c3c(Cl)cc(Cl)cc3OCCn3cc(F)cn3)c2C1`: the Vd in data set [10] was 10 L/kg. Besides, in [11], the Ki stood at 1.7 nM.
Turning to `O=c1n(CCCN2CCN(c3cccc(Cl)c3)CC2)nc2ccccn12` [TRAZODONE], the Vd in data set [12] was 18 L/kg.
Still for that read-out and setting: as for `O=C(CCCN1CCC(O)(c2ccc(Cl)cc2)CC1)c1ccc(F)cc1` [HALOPERIDOL], the figure is 0.6 L/kg.
For `CC(C)(NC(=O)N1Cc2nc(N)nc(-c3c(Cl)cc(Cl)cc3OCCn3cccn3)c2C1)C12CC(C1)C2`, in data set [10], the Vd stood at 1.8 L/kg. In data set [11], the Ki stood at 7.3 nM.

Values taken from ChEMBL document CHEMBL3588773, “Volume of Distribution in Drug Design” (J Med Chem, 2015).
